Values quoted from earlier work as cited in patent US20250091981A1, “PROCESS FOR THE PURIFICATION OF 5-AMINOSALICYLIC ACID” (CHEMI S.P.A., priority 2022, published 2025).

What was measured:
[1] = value reported in the literature
[2] = established in the guidelines

Structure (SMILES) | isoelectric pH [1] | maximum daily intake limit [2] [ng]
Nc1ccc(O)c(C(=O)O)c1 [Example 5-ASA, 5-Amino salicylic acid] | 3.7 | 
CCN(CC)N=O [NDEA, N,N-diethyl-nitrosamine] |  | 26.5
